Data on seven molecules can be found in PMC11012289, “The Discovery of New Inhibitors of Insulin-Regulated Aminopeptidase by a High-Throughput Screening of 400,000 Drug-like Compounds” (International Journal of Molecular Sciences, 2024).

The target in assay [1] is T1, IRAP (Homo sapiens, UniProt Q9UIQ6).
T1 construct: The screen was performed with the soluble truncated IRAP enzyme; made in house
As to the kind of experiment: Primary fluorescence IRAP assay (L-Leucine-7-amido-4-methylcoumarin cleavage). Type of assay: biochemical. Conditions: for LipE: calculated from (pIC50Fluorescence − LogD); for LogEC50 (best-fit): log of concentration in M; for EC50: read-out: EC50 (best-fit). The text has this: The primary biochemical assay was developed to measure the enzymatic activity of IRAP.
To ensure biochemically sound, optimal, robust, and affordable assay conditions for large-scale screening, several factors need to be considered. […] For both primary fluorescence and orthogonal absorbance assays, non-binding 1536-well assay plates were used, and 0.05% BSA was included in the assay buffer to minimize the issues associated with protein sticking to plastics. The substrate Km values were determined in two separate experiments using two different batches of IRAP protein. For this, the IRAP progress curve was monitored every 5 min for 2 h using an Envision multimode plate reader (PerkinElmer, Waltham, MA, USA).
First, 10 nL of test compounds (4 mM) or 100% DMSO was dispensed into the 1536-well assay plates using an Echo acoustic liquid handler (Beckman Coulter, Brea, CA, USA). Then, 2 μL of protein working solution (5 × 10^−4 mg/mL) was dispensed to the negative control (min effect) and compound wells (final well concentration 2.5 × 10^−4 mg/mL) using a Certus Flex liquid dispenser (Fritz Gyger AG, Thun, Switzerland) and 2 μL assay buffer to the positive control wells (max effect) using a FLEXdrop (PerkinElmer, Waltham, MA, USA).
Figure S9. Reference compounds in Fluorescence IRAP assay with different end volumes in 1536-well format.
mg/ml) and 2 or 4 µL L -Leucine-7-amido-4-methylcoumarin (f.a.c.
Plates were measured on the Envision every 10 minutes for 140 minutes (data
shown up to 2 hours). %Effect was calculated using no protein as MAX effect (assay buffer was added instead of IRAP).

For assay [2], the target named is T1, IRAP. As to the kind of experiment: Orthogonal absorbance IRAP assay (L-Leucine para-nitroanilide cleavage). In kind it is biochemical. The conditions noted are these: for IC50: read-out: Absorbance pIC50 (converted). The source says: The primary biochemical assay was developed to measure the enzymatic activity of IRAP. […] To establish an orthogonal assay, an alternative L-Leucine para-nitroanilide substrate was used, which IRAP turns over to L-Leucine and para-nitroaniline and is measurable by absorbance at 405 nm (Supplementary Figure S2B).
To ensure biochemically sound, optimal, robust, and affordable assay conditions for large-scale screening, several factors need to be considered. These include the final concentration of substrates, based on the determined substrate Km value; the assay kinetics and reaction linearity; achieving a minimal, rate limiting protein concentration; identifying optimal buffer additives and concentrations; the choice of assay plate type; the final assay volume per well; the stability of reagents; the magnitude and variance of the signal; and the potency and rank order of reference compounds. For both primary fluorescence and orthogonal absorbance assays, non-binding 1536-well assay plates were used, and 0.05% BSA was included in the assay buffer to minimize the issues associated with protein sticking to plastics. The substrate Km values were determined in two separate experiments using two different batches of IRAP protein. For this, the IRAP progress curve was monitored every 5 min for 2 h using an Envision multimode plate reader (PerkinElmer, Waltham, MA, USA). […] To evaluate if using substrate concentrations close to the determined Km values results in sufficient dynamic range within the linear range of the enzymatic reaction, Z′ and S/B were calculated for multiple time points up to 2.5 h in the presence and absence of reference compounds in both assays. The primary fluorescence assay reached an optimal Z′-value after 1 h when using 37.5 μM substrate (Supplementary Figure S5). For the absorbance, 2 h was required for the enzyme reaction time; however, using ~0.4 mM substrate was associated with increased assay variation and a poor Z′ (Supplementary Figure S6).
The orthogonal assay was performed in a black non-binding 1536-well plate (Corning 3728) and sealed with universal lids (Corning 3098). First, 20 nL of test compounds (4 mM) or 100% DMSO was dispensed into the 1536-well assay plates using an Echo acoustic liquid handler (Beckman Coulter). Then, 4 μL of protein working solution (5 × 10^−4 mg/mL) was dispensed to the negative control (min effect) and compound wells (final well concentration 2.5 × 10^−4 mg/mL) using the Certus Flex liquid dispenser (Fritz Gyger AG) and 4 μL assay buffer to the positive control wells (max effect) using the FLEXdrop (PerkinElmer). Next, 4 μL of 2 mM substrate working solution was dispensed into all wells using the FLEXdrop (final well concentration 1 mM). The assay plates were then centrifuged at 187.5× g for 30 s, incubated in the dark at RT for 120 min, and finally read on an Envision plate reader (PerkinElmer) (absorbance at 405 nm, 10 flashes per second). During the dose–response curve analysis in the orthogonal assay, 80 nL of compound (range 2.00 × 10^−3 M–2.74 × 10^−6 M) or 100% DMSO was dispensed into the assay plates using an Echo acoustic liquid handler (Beckman Coulter) with final well concentration range of 20 μM–27.4 nM compound and 1% DMSO.

The target of assay [3] is T1, IRAP. As to the kind of experiment: Deselection fluorescence IRAP assay with 10 µM zinc. Type of assay: biochemical. The conditions noted are these: 10 µM ZnSO4 in assay buffer; for IC50: read-out: Fluorescence + Zn pIC50 (converted). Here is the method: To prepare the assay buffer (50 mM Tris-HCl pH 7.4, 150 mM NaCl, 0.1 mM PMSF, 0.05% BSA) of the primary and orthogonal assays, 1 M Tris-HCl was prepared by dissolving 60.57 g Trizma-base (Mw 121.14 g/mol) (Sigma 93362-250G) in 500 mL MQ water, and the pH was adjusted to 7.4 using 4 M HCl. The solution was filtered with a 0.45 μm filter and stored at room temperature (RT). Then, 2 M NaCl stock was prepared by dissolving 29.22 g NaCl (Mw 58.44 g/mol) (Sigma S7653-250G) in 250 mL MQ water. The solution was filtered with a 0.45 μm filter and stored at RT. Next, 100 mM Phenylmethanesulfonylfluoride (PMSF) stock was prepared by dissolving 1 g PMSF (Mw 174.19 g/mol) (Sigma 78830-1G) in 57.4 mL isopropanol (Sigma I9516-500ML) and stored at 4 °C. A 10% Bovine Serum Albumin (BSA) stock solution was prepared by dissolving 2 g BSA (Mw 66.5 kDa) (Sigma A7030-50G), which was dissolved in 20 mL MQ water. The solution was filtered with a 0.45 μm filter, aliquoted, and stored at −20 °C. For the deselection assay buffer (50 mM Tris-HCl pH 7.4, 150 mM NaCl, 0.1 mM PMSF, 0.05% BSA, 10 μM ZnSO4), 1 mM ZnSO4 solution was prepared by dissolving 28.8 mg ZnSO4 (Mw 287.56 g/mol) (Sigma Z0251-100G) in 100 mL MQ water. The solution was filtered with a 0.45 μm filter and stored at RT. For the TSA assay buffer (50 mM Tris HCL, 150 mM NaCl, pH 7.4), stocks of 1 M Tris HCL and 2 M NaCl were prepared as described above.

Details of assay [4]: method as in ELF screening history. Conditions: ref ELF screening history, cited from earlier work; for Enzyme Active: number of ELF enzyme screens in which the compound was active; for Targets active: number of ELF screens in which the compound was active; for Enzyme Active %: share of ELF enzyme targets screened; for Targets Active %: share of all ELF targets screened.
The target of assay [5] is T1, IRAP. As to the kind of experiment: Thermal shift (TSA) IRAP assay. Type of assay: binding. The source says:
The Thermal shift assay (TSA) is a biophysical technique measuring protein thermal stability. The assay relies on a fluorescent dye that is quenched in an aqueous environment but fluoresces when de-solvated in non-polar environments, such as the hydrophobic pockets of proteins. The target protein is mixed with the dye and heated gradually until it becomes completely denatured; as it unfolds or melts, the dye binds to newly exposed hydrophobic regions of the protein, resulting in a significant increase in fluorescence emission detected by a PCR system. The melting temperature (Tm) is calculated from the protein melt curve, and changes in Tm (known as ΔTm) are correlated with changes in protein stability and ligand binding. […] For the TSA assay, vehicle (DMSO) or compound was dispensed into MicroAmp Endura optical qPCR plates at the desired volume using an Echo acoustic liquid handler. […] The plates were then centrifuged for 10 s at 1000 rpm and sealed with Clear PCR-compatible plate seals.

The mark [6] stands for this setting: 1 mM L-Leucine p-Nitroanilide, 120 min RT.
Where [7] appears, read: screening hits at 30 µM, 1% DMSO.
The mark [8] stands for this setting: 1536-well format, steady-state velocity, read-out: Km (substrate).
Where [9] appears, read: 37.5 µM L-Leucine-7-amido-4-methylcoumarin, 60 min RT, dose-response 20 µM-27.4 nM, read-out: Fluorescence pIC50 (converted).

Structures are written as SMILES. Like-named read-outs stand apart in the source and are kept apart here.

T1 sequence (Q9UIQ6 155-1025 limits assumed): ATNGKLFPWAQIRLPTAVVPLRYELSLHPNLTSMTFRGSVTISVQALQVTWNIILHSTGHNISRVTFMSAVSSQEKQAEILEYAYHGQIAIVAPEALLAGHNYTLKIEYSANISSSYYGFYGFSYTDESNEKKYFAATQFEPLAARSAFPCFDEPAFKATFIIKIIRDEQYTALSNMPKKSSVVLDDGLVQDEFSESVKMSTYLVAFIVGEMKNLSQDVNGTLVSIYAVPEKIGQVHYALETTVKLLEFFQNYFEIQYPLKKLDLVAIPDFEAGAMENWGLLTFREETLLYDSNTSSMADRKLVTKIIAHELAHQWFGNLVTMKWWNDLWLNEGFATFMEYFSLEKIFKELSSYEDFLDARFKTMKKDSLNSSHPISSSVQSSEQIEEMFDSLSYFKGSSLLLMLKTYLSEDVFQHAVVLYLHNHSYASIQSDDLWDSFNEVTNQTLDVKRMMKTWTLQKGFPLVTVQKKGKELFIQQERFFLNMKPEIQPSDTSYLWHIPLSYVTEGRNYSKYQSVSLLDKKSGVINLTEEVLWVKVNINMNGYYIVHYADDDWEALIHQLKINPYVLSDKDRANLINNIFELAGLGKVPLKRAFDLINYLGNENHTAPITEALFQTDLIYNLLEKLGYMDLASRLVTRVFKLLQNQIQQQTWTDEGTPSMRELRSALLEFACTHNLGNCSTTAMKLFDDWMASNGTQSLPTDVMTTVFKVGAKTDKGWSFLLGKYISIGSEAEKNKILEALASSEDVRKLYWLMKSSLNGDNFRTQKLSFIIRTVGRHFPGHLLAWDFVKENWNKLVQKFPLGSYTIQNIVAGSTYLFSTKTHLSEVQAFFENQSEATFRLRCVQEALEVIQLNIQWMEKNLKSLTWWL

In the case of `Cc1ccc(-c2nc(C3CCCN3C(=O)NCc3ccccc3)n3ccccc23)cc1` (racemic) [QHL36], the “Fluorescence pIC50” value on IRAP [1] (37.5 µM L-Leucine-7-amido-4-methylcoumarin, 60 min RT, dose-response 20 µM-27.4 nM) is 5.40. The IC50 on IRAP [1] (37.5 µM L-Leucine-7-amido-4-methylcoumarin, 60 min RT, dose-response 20 µM-27.4 nM, read-out: Fluorescence IC50) worked out at 3.98 µM. Also, the LipE at IRAP [1] was 0.29. Also, on IRAP [2] (setting [6]), the “Absorbance pIC50” value worked out at 5.80. Moreover, at IRAP [3], the “Fluorescence + Zn pIC50” value is reported as 5.31. Besides, in assay [4], the “Enzyme Active” value is reported as 4, the Targets active is 6, the “Enzyme Active %” value is 7.1% and the “Targets Active %” value is 5.8%. In addition, at IRAP [5] (setting [7]), the “TSA (∆°C), thermal shift of IRAP” value was found to be 0.3 °C.

Consider `O=S(=O)(Nc1cccc(-c2nnn[nH]2)c1)c1cc(Cl)c(Cl)cc1Cl` [I, reference compound], for which the “LogEC50 (best-fit)” value at IRAP [1] (4 µl end volume, 30 min) is -4.565; on IRAP [1] (4 µl end volume, 60 min), -4.541; on IRAP [1] (4 µl end volume, 90 min) it was -4.517; at IRAP [1] (4 µl end volume, 120 min) it was -4.5; on IRAP [1] (8 µl end volume, 30 min) it was -4.385; at IRAP [1] (8 µl end volume, 60 min) it was -4.449. Further, the “LogEC50 (best-fit)” value is listed as -4.469 on IRAP [1] (8 µl end volume, 90 min) and -4.427 on IRAP [1] (8 µl end volume, 120 min). Also, the EC50 on IRAP [1] (4 µl end volume, 30 min) was 27.2 µM; at IRAP [1] (4 µl end volume, 60 min), 28.8 µM; on IRAP [1] (4 µl end volume, 90 min) it was 30.4 µM; on IRAP [1] (4 µl end volume, 120 min), 31.6 µM; at IRAP [1] (8 µl end volume, 30 min) it was 41.2 µM; on IRAP [1] (8 µl end volume, 60 min) it was 35.6 µM. The EC50 came out at 34 µM at IRAP [1] (8 µl end volume, 90 min) and 37.4 µM at IRAP [1] (8 µl end volume, 120 min). For the same molecule, the “stabilization of the thermal melting temperature of IRAP” value at IRAP [5] (10-point half-log concentration series) is “dose-dependent and saturable”. Further, the “IRAP Tm” value at IRAP [5] (compound at 400 µM) is 69.05 ± 0.17 °C.

Consider `CC(C)C[C@H](N)C(=O)Nc1ccc([N+](=O)[O-])cc1` [L-Leucine p-Nitroanilide, reference compound], for which, on IRAP [2] (setting [8]), the Km amounted to 380 µM.

On to `Cc1cc(=O)oc2cc(NC(=O)[C@@H](N)CC(C)C)ccc12` [L-Leucine-7-amido-4-methylcoumarin, reference compound], for which, on IRAP [1] (setting [8]), the Km turned out to be 36.6 µM.

Take `O=C(Cc1ccccc1S(=O)(=O)N1CCc2ccccc2C1)NO` [QHL1, 2-(2-((3,4-dihydroisoquinolin-2(1H)-yl)sulfonyl)phenyl)-N-hydroxyacetamide]: the IC50 on IRAP [1] (setting [9]) was 0.316 µM. Also, the LipE at IRAP [1] was 4.85. The IC50 at IRAP [2] (setting [6]) is 0.871 µM. The IC50 at IRAP [3] was 0.316 µM. Moreover, in assay [4], the “Enzyme Active” value is on record as 2, the Targets active is 7, the “Enzyme Active %” value is recorded as 2.1% and the “Targets Active %” value is given as 4.7%. Besides, on IRAP [5] (setting [7]), the ΔTm at 30 µM worked out at 6.77 °C.

As for `O=C(NO)C(CS(=O)(=O)N1CCC(c2ccc(F)cc2Cl)C1)C1CCOCC1` (stereo not drawn) [QHL2], the IC50 on IRAP [1] (setting [9]) was 0.355 µM. Further, on IRAP [1], the LipE was 4.89. In addition, on IRAP [2] (setting [6]), the IC50 was 0.794 µM. Also, at IRAP [3], the IC50 is 0.339 µM. Further, in assay [4], the “Enzyme Active” value was 4, the Targets active is listed as 5, the “Enzyme Active %” value was 4.3% and the “Targets Active %” value is on record as 3.4%. Moreover, at IRAP [5] (setting [7]), the ΔTm at 30 µM worked out at 3.7 °C.

On to `CC(C)C(CS(=O)(=O)N(Cc1cc2ccccc2o1)C(C)C)C(=O)NO` (stereo not drawn) [QHL3], for which the IC50 on IRAP [1] (setting [9]) was 0.38 µM. Moreover, the LipE on IRAP [1] was 4.08. The IC50 on IRAP [2] (setting [6]) was 0.708 µM. In addition, the IC50 on IRAP [3] is 0.389 µM. For the same molecule, in assay [4], the “Enzyme Active” value is listed as 3, the Targets active is on record as 4, the “Enzyme Active %” value was 3.2% and the “Targets Active %” value is 2.7%. The ΔTm at 30 µM on IRAP [5] (setting [7]) was determined as 5.22 °C.

By EC50 is commonly meant the concentration that produces a half-maximal response. The Km is the concentration of substrate that gives half-maximal velocity. The term ΔTm denotes the change in melting temperature against a reference sample.
